31 molecules from US9382197B2, “Substituted hydroxamic acids and uses thereof” (Millennium Pharmaceuticals, Inc., priority 2010, dated 2016) can be followed below.

Where only a bound is given, the exact number is not on record here.

One assay has as its target T1, purified human HDAC6 (Homo sapiens, UniProt Q9UBN7).
T1 construct: purchased BPS Bioscience 5006
T1 sequence (Q9UBN7 1-1215): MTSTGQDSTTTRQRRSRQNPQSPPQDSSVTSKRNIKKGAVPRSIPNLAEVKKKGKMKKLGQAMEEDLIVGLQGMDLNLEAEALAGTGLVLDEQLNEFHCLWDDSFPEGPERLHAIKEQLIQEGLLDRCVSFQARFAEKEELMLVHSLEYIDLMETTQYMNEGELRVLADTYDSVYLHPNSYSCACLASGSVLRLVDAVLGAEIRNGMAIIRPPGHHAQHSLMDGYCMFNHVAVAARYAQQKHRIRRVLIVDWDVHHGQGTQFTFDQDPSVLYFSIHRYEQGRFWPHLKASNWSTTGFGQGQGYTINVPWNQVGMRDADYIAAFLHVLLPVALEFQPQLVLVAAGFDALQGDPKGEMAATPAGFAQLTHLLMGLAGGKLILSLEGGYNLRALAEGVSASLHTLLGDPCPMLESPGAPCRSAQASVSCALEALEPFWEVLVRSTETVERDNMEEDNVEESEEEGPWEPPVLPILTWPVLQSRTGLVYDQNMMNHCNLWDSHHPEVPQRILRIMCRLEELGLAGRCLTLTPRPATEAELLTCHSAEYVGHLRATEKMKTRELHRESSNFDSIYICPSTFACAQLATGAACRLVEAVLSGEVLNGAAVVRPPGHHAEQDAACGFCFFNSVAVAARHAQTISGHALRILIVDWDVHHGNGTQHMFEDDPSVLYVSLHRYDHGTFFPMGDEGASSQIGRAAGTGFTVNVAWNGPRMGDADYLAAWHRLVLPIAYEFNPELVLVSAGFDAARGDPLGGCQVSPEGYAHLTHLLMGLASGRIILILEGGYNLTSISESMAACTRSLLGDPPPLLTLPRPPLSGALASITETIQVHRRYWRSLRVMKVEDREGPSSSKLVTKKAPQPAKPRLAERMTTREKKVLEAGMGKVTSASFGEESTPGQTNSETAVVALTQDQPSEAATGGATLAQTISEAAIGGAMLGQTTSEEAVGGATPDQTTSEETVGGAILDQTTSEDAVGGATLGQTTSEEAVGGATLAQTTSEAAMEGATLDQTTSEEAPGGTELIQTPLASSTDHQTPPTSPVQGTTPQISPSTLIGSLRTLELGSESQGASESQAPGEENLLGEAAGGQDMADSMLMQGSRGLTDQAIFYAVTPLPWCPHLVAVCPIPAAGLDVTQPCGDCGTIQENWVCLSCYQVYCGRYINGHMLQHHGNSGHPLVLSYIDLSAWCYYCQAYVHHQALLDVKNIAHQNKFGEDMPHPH
As to the kind of experiment: HDAC6 Enzyme Assay. The conditions noted are these: bin: greater than 500 nM and less than 1 μM (lower bound in nM, upper bound in μM). In kind it is biochemical. The procedure, abridged: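 Deacetylated product quantified after trypsin digestion as released AMC (340/460 nm), following a 1 h, 30 °C reaction of human HDAC6 with Ac-RGK(Ac)-AMC peptide, quenched by trichostatin A. IC50 derived from DMSO-normalized curves.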
Take `CC(NC(=O)c1c2c(nn1C)CCCC2)c1cccc(C(=O)NO)c1` (stereo not shown) [Compound I-101, N-(1-{3-[(hydroxyamino)carbonyl]phenyl}ethyl)-2-methyl-4,5,6,7-tetrahydro-2H-indazole-3-carboxamide]: the half-maximal inhibitory concentration (IC50) fell in the range of 500 to 1000 nM.

The molecule `CC(NC(=O)c1cscn1)c1cccc(C(=O)NO)c1` (stereo not shown) [Compound I-179, N-(1-{3-[(hydroxyamino)carbonyl]phenyl}ethyl)-1,3-thiazole-4-carboxamide] yielded an IC50 of 500 to 1000 nM.

The molecule `CC(NC(=O)c1ccc(C(C)(C)C)cc1)c1cccc(C(=O)NO)c1` (stereo not shown) [Compound I-268, 3-{1-[(4-tert-butylbenzoyl)amino]ethyl}-N-hydroxybenzamide] returned an IC50 of 500 to 1000 nM.

The assay is the same for the next values; noted with them: bin: greater than 1 μM.
The molecule `CC(NC(=O)c1csc2ccccc12)c1ccc(C(=O)NO)cc1` (stereo not shown) [Compound I-244, N-(1-{4-[(hydroxyamino)carbonyl]phenyl}ethyl)-1-benzothiophene-3-carboxamide] had an IC50 of over 1000 nM.

For the molecule `CC(NC(=O)c1cc2oc(-c3ccc(C(C)(C)C)cc3)cc2n1C)c1cccc(C(=O)NO)c1` (stereo not shown) [Compound I-324, 2-(4-tert-butylphenyl)-N-(1-{3-[(hydroxyamino)carbonyl]phenyl}ethyl)-4-methyl-4H-furo[3,2-b]pyrrole-5-carboxamide], the half-maximal inhibitory concentration (IC50) was over 1000 nM.

As for `CC(NC(=O)Cc1c(F)cccc1Cl)c1ccc(C(=O)NO)cc1` (stereo not shown) [Compound I-24, 4-(1-{[(2-chloro-6-fluorophenyl)acetyl]amino}ethyl)-N-hydroxybenzamide], the half-maximal inhibitory concentration (IC50) was over 1000 nM.

With `CC(NC(=O)c1cnnc2ccccc12)c1ccc(C(=O)NO)cc1` (stereo not shown) [Compound I-56, N-(1-{4-[(hydroxyamino)carbonyl]phenyl}ethyl)cinnoline-4-carboxamide], the 50% inhibitory concentration (IC50) is over 1000 nM.

For `Cc1oc(-c2ccccc2)nc1CC(=O)NC(C)c1cccc(C(=O)NO)c1` (stereo not shown) [Compound I-234, N-hydroxy-3-(1-{[(5-methyl-2-phenyl-1,3-oxazol-4-yl)acetyl]amino}ethyl)benzamide], the IC50 is over 1000 nM.

Consider `Cn1c(C(=O)NC(c2ccc(C(=O)NO)cc2)C(C)(C)C)cc2oc(-c3ccc(C(C)(C)C)cc3)cc21` (stereo not shown) [Compound I-337, 2-(4-tert-butylphenyl)-N-(1-{4-[(hydroxyamino)carbonyl]phenyl}-2,2-dimethylpropyl)-4-methyl-4H-furo[3,2-b]pyrrole-5-carboxamide], for which the IC50 was over 1000 nM.

`CC(C)[C@H](NC(=O)C12CC3CC(CC(C3)C1)C2)c1ccc(C(=O)NO)cc1` [Compound I-157, N-((1S)-1-{4-[(hydroxyamino)carbonyl]phenyl}-2-methylpropyl)adamantane-1-carboxamide] came in with a 50% inhibitory concentration (IC50) of over 1000 nM.

The same assay, now with this note: purified human HDAC6, substrate Ac-Arg-Gly-Lys(Ac)-AMC, 1 hour at 30° C.; reported as bins.
The molecule `CC(C)[C@@H](NC(=O)c1cc2ccccc2n1C)c1ccc(C(=O)NO)cc1` [Compound I-242, N-((1R)-1-{4-[(hydroxyamino)carbonyl]phenyl}-2-methylpropyl)-1-methyl-1H-indole-2-carboxamide] had an IC50 of under 100 nM.

`C[C@@H](NCC1(C)CCCCC1)c1ccc(C(=O)NO)cc1` [Compound I-489, N-hydroxy-4-((1R)-1-{[(1-methylcyclohexyl)methyl]amino}ethyl)benzamide] yielded a half-maximal inhibitory concentration (IC50) of 100 to 500 nM.

`CC(NC(=O)C1CCCCC1)c1ccc(C(=O)NO)cc1` (stereo not shown) [Compound I-208, 4-{1-[(cyclohexylcarbonyl)amino]ethyl}-N-hydroxybenzamide] had a half-maximal inhibitory concentration (IC50) of under 100 nM.

`C[C@H](NC(=O)c1cc2ccccc2s1)c1ccc(C(=O)NO)cc1` [Compound I-53, N-((1S)-1-{4-[(hydroxyamino)carbonyl]phenyl}ethyl)-1-benzothiophene-2-carboxamide] returned a concentration for half-maximal inhibition (IC50) of under 100 nM.

`CC(NC(=O)c1cccs1)c1cccc(C(=O)NO)c1` (stereo not shown) [Compound I-267, N-(1-{3-[(hydroxyamino)carbonyl]phenyl}ethyl)thiophene-2-carboxamide] had a 50% inhibitory concentration (IC50) of 100 to 500 nM.

As to `CC(NC(=O)Nc1ccc(F)cc1)c1ccc(C(=O)NO)cc1` (stereo not shown) [Compound I-37, 4-[1-({[(4-fluorophenyl)amino]carbonyl}amino)ethyl]-N-hydroxybenzamide], the half-inhibitory concentration (IC50) was under 100 nM.

For `CC(NC(=O)c1cn(C)c2ccccc12)c1cccc(C(=O)NO)c1` (stereo not shown) [Compound I-353, N-(1-{3-[(hydroxyamino)carbonyl]phenyl}ethyl)-1-methyl-1H-indole-3-carboxamide], the IC50 was 100 to 500 nM.

Molecule `CC(C)C(NC(=O)c1ccc(-c2ccccc2)cc1)c1ccc(C(=O)NO)cc1` (stereo not shown) [Compound I-11, N-(1-{4-[(hydroxyamino)carbonyl]phenyl}-2-methylpropyl)biphenyl-4-carboxamide] displayed an IC50 of under 100 nM.

As to `CC(NS(=O)(=O)c1ccc(Cl)cc1)c1ccc(C(=O)NO)cc1` (stereo not shown) [Compound I-302, 4-(1-{[(4-chlorophenyl)sulfonyl]amino}ethyl)-N-hydroxybenzamide], the 50% inhibitory concentration (IC50) is 100 to 500 nM.

`Cc1ccc(NC(=O)NC(C)c2ccc(C(=O)NO)cc2)cc1C` (stereo not shown) [Compound I-55, 4-[1-({[(3,4-dimethylphenyl)amino]carbonyl}amino)ethyl]-N-hydroxybenzamide] displayed a half-inhibitory concentration (IC50) of under 100 nM.

In turn, `CC(NS(=O)(=O)c1ccc(-c2cnco2)cc1)c1ccc(C(=O)NO)cc1` (stereo not shown) [Compound I-178, N-hydroxy-4-[1-({[4-(1,3-oxazol-5-yl)phenyl]sulfonyl}amino)ethyl]benzamide] yielded a half-inhibitory concentration (IC50) of 100 to 500 nM.

With `CC(C)(C)C(NC(=O)c1csc2ccccc12)c1ccc(C(=O)NO)cc1` (stereo not shown) [Compound I-158, N-(1-{4-[(hydroxyamino)carbonyl]phenyl}-2,2-dimethylpropyl)-1-benzothiophene-3-carboxamide], the IC50 is 100 to 500 nM.

`CC(C)Cc1cc(C(=O)NC(C)c2ccc(C(=O)NO)cc2)no1` (stereo not shown) [Compound I-286, N-(1-{4-[(hydroxyamino)carbonyl]phenyl}ethyl)-5-isobutylisoxazole-3-carboxamide] registered an IC50 of under 100 nM.

`Cc1nn(C)cc1C(=O)NC(c1ccc(C(=O)NO)cc1)C(C)(C)C` (stereo not shown) [Compound I-86, N-(1-{4-[(hydroxyamino)carbonyl]phenyl}-2,2-dimethylpropyl)-1,3-dimethyl-1H-pyrazole-4-carboxamide] yielded a half-maximal inhibitory concentration (IC50) of 100 to 500 nM.

Molecule `Cc1[nH]c2c(C)ccc(C)c2c1CC(=O)NC(c1ccc(C(=O)NO)cc1)C(C)C` (stereo not shown) [Compound I-220, N-hydroxy-4-(2-methyl-1-{[(2,4,7-trimethyl-1H-indol-3-yl)acetyl]amino}propyl)benzamide] gave an IC50 of 100 to 500 nM.

Consider `CC(NS(=O)(=O)c1ccc(F)cc1)c1ccc(C(=O)NO)cc1` (stereo not shown) [Compound I-2, 4-(1-{[(4-fluorophenyl)sulfonyl]amino}ethyl)-N-hydroxybenzamide], for which the IC50 fell in the range of 100 to 500 nM.

Consider `CC(C)C(NC(=O)c1csc(-c2ccccc2)n1)c1ccc(C(=O)NO)cc1` (stereo not shown) [Compound I-172, N-(1-{4-[(hydroxyamino)carbonyl]phenyl}-2-methylpropyl)-2-phenyl-1,3-thiazole-4-carboxamide], for which the half-maximal inhibitory concentration (IC50) is under 100 nM.

For the molecule `COc1ccc(C(=O)NC(C)c2cccc(C(=O)NO)c2)cc1` (stereo not shown) [Compound I-202, N-hydroxy-3-{1-[(4-methoxybenzoyl)amino]ethyl}benzamide], the IC50 was 100 to 500 nM.

With `CC(C)C(NC(=O)Cc1csc2ccc(Cl)cc12)c1ccc(C(=O)NO)cc1` (stereo not shown) [Compound I-206, 4-(1-{[(5-chloro-1-benzothien-3-yl)acetyl]amino}-2-methylpropyl)-N-hydroxybenzamide], the IC50 lay in the range of 100 to 500 nM.

As to `CC(C)[C@@H](NC(=O)c1cc2oc(-c3ccccc3)cc2n1C)c1ccc(C(=O)NO)cc1` [Compound I-332, N-((1R)-1-{4-[(hydroxyamino)carbonyl]phenyl}-2-methylpropyl)-4-methyl-2-phenyl-4H-furo[3,2-b]pyrrole-5-carboxamide], the concentration for half-maximal inhibition (IC50) was under 100 nM.

`CC(NC(=O)c1ccc(-n2cccn2)cc1)c1ccc(C(=O)NO)cc1` (stereo not shown) [Compound I-185, N-(1-{4-[(hydroxyamino)carbonyl]phenyl}ethyl)-4-(1H-pyrazol-1-yl)benzamide] came in with a half-maximal inhibitory concentration (IC50) of under 100 nM.

The term IC50 denotes the concentration that inhibits the measured activity by half. A low value points to inhibition by little substance.
